Each structure is given as a SMILES string. Non-standard residues stand in square brackets, D forms with d. Residues, ends and D or L forms follow the SMILES beside them.

This assay concerns influenza virus (A/Puerto Rico/8/34, PR8) expressing green fluorescent protein (PR8-GFP). The class given is cell-based.

With `CC(C)C[C@@H](NC(=O)[C@@H](CC(C)C)NC(=O)[C@@H](CC(N)=O)NC(=O)[C@H](NC(=O)[C@@H](Cc1ccccc1)NC(=O)CNC(=O)[C@@H](Cc1ccc(O)cc1)NC(=O)CNC(=O)[C@@H](CCCNC(=N)N)NC(=O)[C@@H](CCCCN)NC(=O)[C@@H](CCCCN)NC(=O)[C@@H](CCCNC(=N)N)NC(=O)[C@@H](CCCNC(=N)N)NC(=O)[C@@H](CCC(N)=O)NC(=O)[C@@H](CCCNC(=N)N)NC(=O)[C@@H](CCCNC(=N)N)NC(=O)[C@H](N)CCCNC(=N)N)C(C)C)C(=O)N[C@H](Cc1ccccc1)C(=O)N[C@H](CC(C)C)C(=O)N[C@@H](C(=O)N[C@@H](C(=O)N[C@H](CCC(=O)O)C(=O)O)C(C)C)C(C)C` [TAT-Kα2] (H-[dR][dR][dR][dQ][dR][dR][dK][dK][dR]G[dY]G[dF][dV][dN][dL][dL][dF][dL][dV][dV][dE]-OH), the “inhibition of PR8-GFP virus infection” value is on record as “significantly inhibited”.

(Values after paper PMC5501782 (Scientific Reports, 2017).)
